Experimental findings from ChEMBL document CHEMBL1140140, “4-[3-(4-cyclopropanecarbonylpiperazine-1-carbonyl)-4-fluorobenzyl]-2H-phthalazin-1-one: a novel bioavailable inhibitor of poly(ADP-ribose) polymerase-1” (J Med Chem, 2008) are described below.

By IC50 is commonly meant the concentration that gives 50% inhibition. A low value points to greater potency in that assay. As a reminder, the solubility is the dissolved amount per volume that the medium holds. A lower solubility goes with little dissolved substance. The half-life is how long it takes for the measured level to halve. The term bioavailability denotes dose-corrected exposure relative to a reference, in per cent. A higher bioavailability goes with much systemic uptake.

The target of data set [1] is Poly [ADP-ribose] polymerase 1 (Homo sapiens, UniProt P09874).
Poly [ADP-ribose] polymerase 1, sequence (P09874 whole entry): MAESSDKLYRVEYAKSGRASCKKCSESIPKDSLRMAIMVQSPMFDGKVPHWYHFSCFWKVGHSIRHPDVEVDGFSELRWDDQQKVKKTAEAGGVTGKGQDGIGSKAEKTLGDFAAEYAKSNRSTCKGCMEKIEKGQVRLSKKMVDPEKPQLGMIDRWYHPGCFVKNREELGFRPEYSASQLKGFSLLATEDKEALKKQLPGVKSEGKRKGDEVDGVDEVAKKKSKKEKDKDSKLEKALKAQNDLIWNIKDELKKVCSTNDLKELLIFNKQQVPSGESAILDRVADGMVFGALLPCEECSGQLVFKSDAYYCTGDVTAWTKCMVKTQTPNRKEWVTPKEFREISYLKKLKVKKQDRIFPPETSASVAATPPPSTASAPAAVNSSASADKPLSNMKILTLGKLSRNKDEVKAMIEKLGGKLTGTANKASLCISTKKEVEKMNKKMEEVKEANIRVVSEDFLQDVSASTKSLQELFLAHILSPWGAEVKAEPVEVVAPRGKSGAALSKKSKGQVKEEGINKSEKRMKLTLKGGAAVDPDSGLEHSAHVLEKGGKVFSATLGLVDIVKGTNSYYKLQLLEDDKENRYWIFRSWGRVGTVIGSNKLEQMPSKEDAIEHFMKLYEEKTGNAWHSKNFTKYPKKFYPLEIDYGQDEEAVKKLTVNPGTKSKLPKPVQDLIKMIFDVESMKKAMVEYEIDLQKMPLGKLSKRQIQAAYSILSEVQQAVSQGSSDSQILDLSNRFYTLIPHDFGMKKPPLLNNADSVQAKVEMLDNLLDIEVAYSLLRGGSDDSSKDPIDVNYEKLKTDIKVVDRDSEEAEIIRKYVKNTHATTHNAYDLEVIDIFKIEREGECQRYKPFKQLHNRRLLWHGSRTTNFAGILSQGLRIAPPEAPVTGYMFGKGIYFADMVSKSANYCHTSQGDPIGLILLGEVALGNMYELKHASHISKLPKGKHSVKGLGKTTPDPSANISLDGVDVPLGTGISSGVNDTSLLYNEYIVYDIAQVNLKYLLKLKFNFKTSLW
A further data set has as its system HeLa. Nature of the data set: Potentiation factor, ratio of IC50 for methyl methanesulfonate to IC50 for methyl methanesulfonate with 200 nM drug for inhibition of human HeLa B cells.
Data set [2] in a line: Solubility of compound in 0.1 M phosphate buffer after 24 hrs by HPLC-UV method. Format: physicochemical.
Data set [3] can be described thus: Half life in rat at 15 mg/kg, iv and po. Also on record: dose 15 mg/kg, route oral. The data set is classed as ADME, organism-based. The following applies: in vivo.
Data set [4] can be described thus: Plasma concentration in mouse at 10 mg/kg, po after 60 mins. Format: ADME, organism-based. Also on record: dose 10 mg/kg, route oral.
Data set [5] is described as follows: Half life in dog at 2.5 mg/kg, iv and 10 mg/kg, po. Format: ADME, organism-based, Canis lupus familiaris. Particulars: in vivo.
A short description of data set [6]: Clearance in dog at 2.5 mg/kg, iv and 10 mg/kg, po. The data set is classed as ADME, organism-based, Canis lupus familiaris. The following applies: in vivo.
The nature of data set [7]: Oral bioavailability in dog at 10 mg/kg, po. The data set is classed as ADME, organism-based, Canis lupus familiaris. The following applies: in vivo.
A short description of data set [8]: Volume of distribution in dog at 2.5 mg/kg, iv and 10 mg/kg, po. The data set is classed as ADME, organism-based, Canis lupus familiaris. Particulars: in vivo.
For data set [9], the system named is SW-620. Nature of the data set: Potentiation of methyl methanesulfonate-induced growth inhibition of human SW620 cells after 4 days by sulforhodamine B assay. Format: functional, cell-based. (In general: Sulforhodamine B stains cellular protein and so reports cell mass.)
A short description of data set [10]: Plasma concentration in mouse at 10 mg/kg, po after 30 mins. Also on record: dose 10 mg/kg, route oral. The data set is classed as ADME, organism-based.
The species named for the next data set is Homo sapiens. Nature of the data set: Cytotoxicity against BRCA1-deficient human […] cells upto 4 uM after 7 to 14 days by clonogenic assay. The data set is classed as functional, cell-based.
The test system of data set [11] is Rattus norvegicus. Nature of the data set: Volume of distribution in rat at 15 mg/kg, iv and po. Particulars: in vivo. Also on record: dose 15 mg/kg, route oral. Format: ADME, organism-based.
Data set [12] deals with Rattus norvegicus. Nature of the data set: AUC (0 to infinity) in rat at 15 mg/kg, iv and po. The data set is classed as ADME, organism-based, Plasma. On the set-up: dose 15 mg/kg, route oral. The following applies: in vivo.
The test system of another data set is Canis familiaris. The data set can be described thus: AUC (0 to infinity) in dog at 2.5 mg/kg, iv and 10 mg/kg, po. Particulars: in vivo. The data set is classed as ADME, organism-based, Canis lupus familiaris, Plasma.
Data set [13] is described as follows: Oral bioavailability in rat at 15 mg/kg, po. The data set is classed as ADME, organism-based. The following applies: in vivo.
The subject of a further data set is HCC1937. The data set can be described thus: Cytotoxicity against BRCA1-deficient human HCC1937 cells upto 4 uM after 7 to 14 days by clonogenic assay. The data set is classed as functional, cell-based.
Data set [14] deals with SW-620. The data set can be described thus: Antitumor activity in human SW620 cells xenografted mouse assessed as days to double the relative tumor volume at 50 mg/kg, po once daily for 5 consecutive days. The data set is classed as functional.
Another data set concerns Mus musculus. Nature of the data set: Toxicity in human SW620 cells xenografted mouse assessed as maximum mean body weight loss after 3 days. The following applies: in vivo, 72 h. The data set is classed as organism-based, SW-620. Background: A xenograft is tissue or cells of one species grown in another, often human tumour cells in immunodeficient mice.

≈ marks a conversion by molar mass, not a printed value. Calls of active or inactive are those of the source. The rule behind the calls is not given here.

In turn, `O=C(c1cccc(Cc2n[nH]c(=O)c3ccccc23)c1)N1CCCN(Cc2ccccc2)CC1` showed an IC50 in data set [1] of 18 nM. Further, the PF50 in the data set on HeLa was determined as 2.2.
The like results for `CC(=O)N1CCCN(C(=O)c2cc(Cc3n[nH]c(=O)c4ccccc34)ccc2F)CC1` were, in that order, 12 nM and 3.7.
The like results for `O=C(c1cc(Cc2n[nH]c(=O)c3ccccc23)ccc1F)N1CCCN(C(=O)C2CC2)CC1` were, in that order, 12 nM and 4.2.
As to `CCN1CCN(C(=O)c2cc(Cc3n[nH]c(=O)c4ccccc34)ccc2F)CC1`, in data set [1], the concentration for half-maximal inhibition (IC50) came out at 6 nM. Moreover, in the data set with HeLa, the PF50 stood at 7.7.
The like results for `CC(=O)N1CCN(C(=O)c2cc(Cc3n[nH]c(=O)c4ccccc34)ccc2F)CC1` were, in that order, 6 nM and 7.97.
The like results for `CCCN1CCN(C(=O)c2cc(Cc3n[nH]c(=O)c4ccccc34)ccc2F)CC1` were, in that order, 6 nM and 7.3.
`O=C(c1ccccc1)N1CCN(C(=O)c2cc(Cc3n[nH]c(=O)c4ccccc34)ccc2F)CC1` gave an IC50 in data set [1] of 6 nM. For the same compound, in the data set on HeLa, the PF50 came to 8.2.
The like results for `O=C(c1cc(Cc2n[nH]c(=O)c3ccccc23)ccc1F)N1CCN(CCO)CC1` were, in that order, 12 nM and 3.3.
The like results for `CN1CCN(C(=O)c2cccc(Cc3n[nH]c(=O)c4ccccc34)c2)CC1` were, in that order, 88 nM and 1.02.
Consider `CN1CCN(C(=O)c2cc(Cc3n[nH]c(=O)c4ccccc34)ccc2F)CC1`, for which the IC50 in data set [1] came out at 13 nM. The PF50 with HeLa turned out to be 2.5.
In data set [2], `O=C(c1cc(Cc2n[nH]c(=O)c3ccccc23)ccc1F)N1CCN(C(=O)C2CCCO2)CC1` (configuration not stated) registered a solubility at 24 h of 980 µg/mL (≈ 2110 µM). In addition, in the data set with HeLa, the PF50 was 39.4.
In the case of `O=C(c1cc(Cc2n[nH]c(=O)c3ccccc23)ccc1F)N1CCN(C(=O)C2CCCC2)CC1`, in data set [1], the IC50 turned out to be 2 nM. The PF50 in the data set with HeLa worked out at 11.8.
The like results for `O=C(c1ccccc1)N1CCN(C(=O)c2cccc(Cc3n[nH]c(=O)c4ccccc34)c2)CC1` were, in that order, 11 nM and 7.2.
For `O=C(c1cc(Cc2n[nH]c(=O)c3ccccc23)ccc1F)N1CCN(CC2CC2)CC1`, the PF50 in the data set on HeLa worked out at 6.5.
In the case of `CCS(=O)(=O)N1CCCN(C(=O)c2cccc(Cc3n[nH]c(=O)c4ccccc34)c2)CC1`, half-maximal inhibition in [1] (IC50) was put at 23 nM. Moreover, in the data set with HeLa, the PF50 was determined as 1.4.
`O=C(c1cccc(Cc2n[nH]c(=O)c3ccccc23)c1)N1CCN(C(=O)N2CCOCC2)CC1` gave an IC50 in data set [1] of 8 nM. In the data set with HeLa, the PF50 came to 2.3.
Take `O=C(c1cc(Cc2n[nH]c(=O)c3ccccc23)ccc1F)N1CCN(C(=O)C2CC2)CC1` [OLAPARIB]: the half-life amounted to 53 min in data set [3] and 170 min in [5]. The concentration at 1 h in data set [4] stood at 590 ng/mL. In addition, the clearance in data set [6] turned out to be 5.4 mL/min/kg. The bioavailability in [7] and in data set [13] was 100% each time. In addition, the Vd amounted to 1.3 L/kg in data set [8] and 1.18 L/kg with Rattus norvegicus [11]. In the data set on SW-620 [9], the Activity result was “Dose-dependent effect”. In [10], this compound gave a concentration at 0.5 h of 230 ng/mL. Also, the result in the data set filed under Homo sapiens and in the data set on HCC1937 was Active. The AUC in the data set with Rattus norvegicus [12] is 304 µg/min/mL; in the data set on Canis familiaris it was 511 µg/min/mL. The PF50 in the data set with HeLa stood at 25.8.
`O=C(c1cc(Cc2n[nH]c(=O)c3ccccc23)ccc1F)N1CCN(c2ccccc2)CC1` had a concentration at 1 h in [4] of 310 ng/mL. In addition, the concentration at 0.5 h in data set [10] was determined as 700 ng/mL. Also, in the data set with HeLa, the PF50 is recorded as 5.2.
For `O=C(c1cccc(Cc2n[nH]c(=O)c3ccccc23)c1)N1CCCN(C(=O)N2CCOCC2)CC1`, the IC50 in data set [1] is 20 nM. The PF50 in the data set on HeLa is listed as 1.4.
Turning to `O=C(c1cc(Cc2n[nH]c(=O)c3ccccc23)ccc1F)N1CCN(C(=O)C2CCOC2)CC1` (configuration not stated), the concentration at 1 h in data set [4] was determined as 150 ng/mL. Moreover, half-maximal inhibition in data set [1] (IC50) required 2 nM. Also, the concentration at 0.5 h in data set [10] came to 160 ng/mL. Besides, the PF50 with HeLa worked out at 29.8.
In the case of `O=C(c1cccc(Cc2n[nH]c(=O)c3ccccc23)c1)N1CCN(c2ncccn2)CC1`, in data set [4], the concentration at 1 h worked out at 140 ng/mL. This compound displayed a solubility at 24 h in [2] of 1 µg/mL (≈ 2.34 µM). The compound also registered a half-maximal inhibitory concentration (IC50) in data set [1] of 2 nM. Also, the concentration at 0.5 h in [10] turned out to be 300 ng/mL. For the same compound, the PF50 in the data set with HeLa was over 40.
In [1], `O=C(c1cccc(Cc2n[nH]c(=O)c3ccccc23)c1)N1CCN(CCO)CC1` had an IC50 of 39 nM. For the same compound, the PF50 in the data set with HeLa is given as 1.8.
The like results for `O=C(c1cc(Cc2n[nH]c(=O)c3ccccc23)ccc1F)N1CCCN(C(=O)N2CCOCC2)CC1` were, in that order, 8 nM and 2.5.
The like results for `CCCCN1CCN(C(=O)c2cc(Cc3n[nH]c(=O)c4ccccc34)ccc2F)CC1` were, in that order, 5 nM and 6.4.
The like results for `O=C(c1cccc(Cc2n[nH]c(=O)c3ccccc23)c1)N1CCCN(CCO)CC1` were, in that order, 18 nM and 5.4.
In [1], `O=C(c1cccc(Cc2n[nH]c(=O)c3ccccc23)c1)N1CCN(c2ccccn2)CC1` yielded an IC50 of 10 nM. Besides, the PF50 in the data set on HeLa was 24.3.
`CCC(=O)N1CCN(C(=O)c2cc(Cc3n[nH]c(=O)c4ccccc34)ccc2F)CC1` came in with a half-life in data set [3] of 55 min. In [4], this compound gave a concentration at 1 h of 300 ng/mL. In data set [1], 5 nM corresponded to half-maximal inhibition (IC50). Moreover, in [10], the concentration at 0.5 h was found to be 670 ng/mL. The compound further had a Vd with Rattus norvegicus [11] of 0.91 L/kg. In the data set with Rattus norvegicus [12], the AUC was determined as 423 µg/min/mL. In data set [13], this compound came in with a bioavailability of 40%. Also, the PF50 in the data set on HeLa stood at 24.4.
`O=C(c1cc(Cc2n[nH]c(=O)c3ccccc23)ccc1F)N1CCN(C(=O)C2CCCCC2)CC1` showed an IC50 in data set [1] of 15 nM. In addition, in the data set with HeLa, the PF50 came to 11.1.
Consider `O=C(c1cc(Cc2n[nH]c(=O)c3ccccc23)ccc1F)N1CCCNCC1`, for which the PF50 in the data set on HeLa was found to be 12.6.
Compound `CCS(=O)(=O)N1CCN(C(=O)c2cc(Cc3n[nH]c(=O)c4ccccc34)ccc2F)CC1` had an IC50 in data set [1] of 8 nM. For the same compound, in the data set on HeLa, the PF50 was 4.9.
In data set [1], `CCS(=O)(=O)N1CCN(C(=O)c2cccc(Cc3n[nH]c(=O)c4ccccc34)c2)CC1` gave a half-maximal inhibitory concentration (IC50) of 12 nM. Further, the PF50 in the data set with HeLa came to 4.6.
For the compound `O=C(c1cc(Cc2n[nH]c(=O)c3ccccc23)ccc1F)N1CCN(c2ncccn2)CC1`, in data set [1], the half-maximal inhibitory concentration (IC50) amounted to 3 nM. Further, the PF50 in the data set on HeLa was over 40.
Regarding `O=C(c1cccc(Cc2n[nH]c(=O)c3ccccc23)c1)N1CCNCC1`, the PF50 in the data set on HeLa was determined as 3.7.
On to `Cn1nnc2c(C(N)=O)ncn2c1=O` [TEMOZOLOMIDE], for which the Time with SW-620 [14] turned out to be 44 days. Besides, the Activity in the data set with Mus musculus is 6%.
For the compound `O=C(c1cc(Cc2n[nH]c(=O)c3ccccc23)ccc1F)N1CCN(C(=O)N2CCOCC2)CC1`, the PF50 with HeLa was found to be 8.4.
`O=C(c1cc(Cc2n[nH]c(=O)c3ccccc23)ccc1F)N1CCNCC1` returned a half-inhibitory concentration (IC50) in data set [1] of 5 nM. Moreover, the PF50 in the data set with HeLa worked out at 8.6.
Turning to `O=C(c1cccc(Cc2n[nH]c(=O)c3ccccc23)c1)N1CCN(c2ccccc2)CC1`, 51 nM corresponded to half-maximal inhibition in data set [1] (IC50).
`O=C(c1cc(Cc2n[nH]c(=O)c3ccccc23)ccc1F)N1CCN(c2ccccn2)CC1` yielded a concentration for half-maximal inhibition (IC50) in [1] of 2 nM. Further, in the data set with HeLa, the PF50 is listed as over 40.
For the compound `O=C(c1cc(Cc2n[nH]c(=O)c3ccccc23)ccc1F)N1CCCN(CCO)CC1`, the PF50 in the data set with HeLa worked out at 18.
